# Tests used:
# [1] = Sweetness level as sucrose equivalent
# [2] = tested on: panel of experts in the sensory evaluation of foods and beverages; assay: Sensory evaluation of sweetness linger and sugar-like taste by expert panel; assay type: in vivo, human; parameters: key: 0=no sweetness linger; 1=very slight sweetness linger; 2=slight sweetness linger; 3=moderate sweetness linger; 4=moderately high sweetness linger; 5=high sweetness linger; settings: for Sweetness Linger rating defined by protocol: scale anchors: sucrose, 500 ppm of REBA control sample
# Protocol: Sensory evaluation of the samples prepared in Example Set G was carried out under the following protocol, similar to that described hereinabove. In this test protocol, none of the samples were swallowed. All samples were expectorated and the mouth was rinsed with water after the tasting. Immediately upon sensing maximal sweetness, the sample was expectorated, the mouth was rinsed with water and the rate of sweetness decay (“Sweetness Linger”) was measured, where attention was focused on the sweetness 3-4 min after the water rinse. After sample tasting was complete, a salty oyster cracker was chewed followed by a water rinse, and at least 5 minutes followed before tasting the next sample. The sweetness linger was rated by a panel of experts in the sensory evaluation of foods and beverages using the following scale: 0=no sweetness linger, 1=very slight sweetness linger, 2=slight sweetness linger, 3=moderate sweetness linger, 4=moderately high sweetness linger, 5=high sweetness linger.
# The “Sweetness Linger” rating for sucrose observed by this protocol is defined as 0. The Sweetness Linger of a 500 ppm of REBA control sample is defined as 5. Experimental samples were tasted by the same protocol, always allowing sufficient time between samples to ensure re-equilibration of the sensory system. Re-tasting of control samples during the course of the experiment was allowed and encouraged.
# The comparison taste test was performed between two controls and addition of sweet taste improving additive on the onset and/or sweetness linger.
# Sweet taste improving compositions were combined with a REBA solution to determine their effect on sweetness linger. Screening of the initial sample, or further dilutions, allowed identification of concentrations which were just above-threshold, herein defined as “near-threshold concentrations.” The near-threshold additive concentrations, a 6- to 100-fold higher additive concentration (depending on the off-taste intensity), and a mid-level additive concentration (halfway between the near-threshold and higher additive concentration) were evaluated to determine the effect on sweetness linger of a REBA solution. […]
# Sensory evaluation using the protocol described in Example Set G then was used to evaluate the sweetness linger of the REBA solutions.
# [3] = Rate of dissolution of rebaudioside A polymorphs in H2O at 25° C.; assay type: physicochemical; settings: result in words
# From the text: (§1) The purification of rebaudioside A by crystallization as described above results in the formation of at least four different polymorphs: Form 1: a rebaudioside A hydrate; Form 2: an anhydrous rebaudioside A; Form 3: a rebaudioside A solvate; and Form 4: an amorphous rebaudioside A. The aqueous organic solution and temperature of the purification process influence the resulting polymorphs in the substantially pure rebaudioside A composition. FIGS. 1-5 are exemplary powder x-ray diffraction (XRPD) scans of polymorphs Form I (hydrate), Form 2 (anhydrate), Form 3A (methanol solvate), Form 3B (ethanol solvate), and Form 4 (amorphous), respectively.
# [4] = Moisture content of rebaudioside A polymorphs; assay type: physicochemical
# From the text: as §1
# [5] = Alcohol content of rebaudioside A polymorphs; assay type: physicochemical
# From the text: as §1
# [6] = assay type: physicochemical
# Protocol: A solution of rebaudioside A (>97% pure by HPLC) was prepared in double distilled water (12.5 gm in 50 mL, 25% concentration) by stirring the mixture at 40° C. for 5 minutes. An amorphous rebaudioside A polymorph was formed by immediately using the clear solution for spray drying with the Lab-Plant spray drier SD-04 instrument (Lab-Plant Ltd., West Yorkshire, U.K.). The solution was fed through the feed pump into the nozzle atomizer which atomized it into a spray of droplets with the help of a constant flow of nitrogen/air. […] This dry powder (11-12 g, H2O 6.74%) was discharged continuously from the drying chamber and was collected in a bottle.
molecule,measurement,setting,value
rebaudioside A,sucrose equivalence of sweetness,[1]; 180 ppm rebaudioside A in 1:1 diluted beverage,5 % sucrose
same,sucrose equivalence of sweetness,[1]; 400 ppm REBA in citric acid/potassium citrate composition,8 g sucrose
same,sweetness linger rating,"[2]; control: 400 ppm REBA in citric acid/potassium citrate composition, no additive",5
same,sweetness linger rating,"[2]; control: 500 ppm REBA in carbon-treated water, phosphoric acid (75%) pH 2.4-2.5",5
same,Sweetness Linger rating defined by protocol,[2],5
rebaudioside A [Form 1],Rate of dissolution in H2O at 25° C.,[3],Very low
same,Moisture content,[4],>5%
same,Alcohol content,[5],<0.5%
rebaudioside A [Form 4],solubility in water at room temperature,[6],> 35.0%
same,Rate of dissolution in H2O at 25° C.,[3],High
same,Moisture content,[4],6.74%
rebaudioside A [Form 3],Rate of dissolution in H2O at 25° C.,[3],High
same,Moisture content,[4],<3%
same,Alcohol content,[5],1-3%
rebaudioside A [Form 2],Rate of dissolution in H2O at 25° C.,[3],Intermediate
same,Moisture content,[4],<1%
same,Alcohol content,[5],<1%
"OC[C@H]1O[C@@](CO)(O[C@H]2O[C@H](CO)[C@@H](O)[C@H](O)[C@H]2O)[C@@H](O)[C@@H]1O [sugar, sucrose]",Sweetness Linger rating defined by protocol,[2],0

# From patent publication US9173425B2, “High-potency sweetener composition with vitamin and compositions sweetened therewith” (THE COCA-COLA COMPANY, priority 2005, dated 2015)
